Measurements taken from US8252796B2, “1-butyl-2-hydroxyaralkyl piperazine derivatives and the uses as anti-depression medicine thereof” (CSPC Zhonggi Pharmaceutical Technology (Shijiazhuang) Co. …, priority 2008, dated 2012).

Columns and labels:
[1] = molecular target: T1, DA reuptake, Rat striatum synaptosome (Rattus norvegicus, UniProt P23977); assay: DA reuptake, optical isomers (Example 37); type: biochemical; details: 15 min/37° C.
T1 construct: Rat striatum; from tissue; host or cells: rat striatum synaptosomes
Description: (§1) 3. Experiment Results (IC50 Value was Obtained by Nonlinear Regression Analysis of Inhibition Rate/Concentration Response Curve)

[2] = molecular target: T2, 5-HT reuptake, Rat brain synaptosome (Rattus norvegicus, UniProt P31652); assay: 5-HT reuptake, optical isomers (Example 37); type: biochemical; details: 15 min/37° C.
T2 construct: Rat brain; from tissue; host or cells: rat brain synaptosomes
Description: as §1

[3] = molecular target: T3, NE reuptake, Rat hypothalamus synaptosome (Rattus norvegicus, UniProt Q9WTR4); assay: NE reuptake, optical isomers (Example 37); type: biochemical; details: 20 min/37° C.
T3 construct: hypothalamus; from tissue; host or cells: rat hypothalamus synaptosomes
Description: as §1

[4] = molecular target: T4, reuptake of NA by brain synaptosomes (prefrontal cortex) (Rattus norvegicus, UniProt Q9WTR4); assay: Inhibition of [3H]NA reuptake by rat brain synaptosomes, single concentration (Example 35); type: biochemical; details: test substance 10 μmol/L; inhibitory rate of 0.1 mM venlafaxine taken as 100%
T4 construct: from tissue; host or cells: rat prefrontal cortex synaptosomes
Procedure: (§2) Studies on the reuptake of monoamine neurotransmitters by brain synaptosomes was performed, which is a currently important mean adopted in the worldwide in pharmacological studies of central nervous. This method can not only be used to study the action mechanism of a drug, but also be used for screening new drugs acting by this mechanism.
(§3) Male SD rats were sacrificed by cervical dislocation and then the brains thereof were taken out rapidly by decollation and placed on ice. Related rain tissues (for [^3H]5-HT and [^3H]NA reuptake experiment, prefrontal cortex was taken; for [^3H]DA reuptake experiment, striatum was taken) were separated and weighed. 10 times (V/W) of 0.32 mol/L ice-cold sucrose solution was added and was homogenized electrically with glass-teflon. The homogenate was centrifugated at 4° C. at 1000 g×10 min. Then the supernatant was taken and centrifugated at 4° C. at 17000 g×20 min. The precipitation was suspended in 30 volume of KRH Buffer (125 mM NaCl, 4.8 mM KCl, 1.2 mM CaCl2, 1.2 mM MgSO4, 1.0 mM KH2PO4, 22 mM NaHCO3, 25 mM HEPES, 10 mM Glucose, 10 μM Pargyline, 0.2 mg/ml Ascorbic Acid) and then was preserved in an ice bath for use. (for NA reuptake experiment, the cortex needed was suspended in 20 volume of KRH Buffer)
(§4) Stock solution of the test substance was thawed immediately before use and diluted with KBH Buffer to 100 μmol/L, 50 μl thereof was added in 500 μl of total reaction system, and the final concentration was 10 μmol/L. Then 50 μl suspended synaptic prepared above was added and mixed evenly, incubated in water bath for 30 min at 37° C. Then […] [^3H] 5-HT (50 nmol/L [^3H]DA or […] [^3H]NA) was added. After incubated at 37° C. for 10 min, the reaction system was immediately taken out and the reaction was stopped by adding 2 ml of ice-cold 150 mmol/L Tris-HCl buffer solution. The samples were collected on the circular fiberglass membrane by vacuum filtration, and the membrane was washed 3 times with 3 ml of ice-cold Tris-HCl buffer solution. The filtration membrane was removed, baked for 15 min in a far-infrared oven and placed into an EP tube. 1.5 ml scintillation fluid was added overnight and was tested by liquid scintillation counter. For the solvent control total binding tube and the non-specific binding tube, no test substance was added; for the total binding tube, 50 μl solvent was added.

[5] = test system: mice; assay: Oral administration acute toxicity in mice; details: for mortality (%) / number of died animals: 14 days
[6] = molecular target: T5, reuptake of DA by brain synaptosomes (striatum) (Rattus norvegicus, UniProt P23977); assay: Inhibition of [3H]DA reuptake by rat brain synaptosomes, single concentration (Example 35); type: biochemical; details: test substance 10 μmol/L; inhibitory rate of 0.1 mM 6-hydroxy DA taken as 100%
T5 construct: from tissue; host or cells: rat striatum synaptosomes
Procedure: as §2, §3, §4

[7] = test system: ICR mice; assay: Mice Forced Swimming Test (in vivo antidepression activity); details: for swimming test: immobility time: n = 12, mean±SD
[8] = molecular target: T6, reuptake of [3H]DA by striatum synaptosomes (Rattus norvegicus, UniProt P23977); assay: IC50 for inhibiting reuptake of [3H]DA by brain synaptosomes (Example 36); type: biochemical; details: mean, n = 3~4
T6 construct: from tissue; host or cells: rat striatum synaptosomes
Procedure: as §3
(§5) 1. Preparation of Rat Brain Synaptosomes (the Same as Example 35)
(§6) The compounds were used for the studies on inhibition effect (IC50) on reuptake of [^3H]5-HT/NA/DA. At least 5 concentrations each time were settled for each test compound. Each concentration was determined by the average of double twin tubes and the test was repeated for more than 3 times. A series of concentrations of the compounds were prepared by gradient dilution before use. 50 μl thereof was added in total reaction system. Then 50 μl suspended synaptic membrane was added and mixed evenly, incubated in water bath at 37° C. for 30 min. Then 10 nmol/L [^3H] 5-HT (or 50 nmol/L [^3H]DA or 40 nmol/L [^3H]NA) was added and incubated in water bath at 37° C. for 10 min (for [^3H]NA, incubated for 5 min). For the [^3H]5-HT reuptake experiment, 50 μL of fluoxetine (100 μmol/L) was added to the non-specific binding tube; for the [^3H]DA reuptake experiment, 50 μL of cocaine (600 μmol/L) was added to the non-specific binding tube; for the [^3H]NA reuptake experiment, 50 μL of desipramine (100 μmol/L) was added to the non-specific binding tube; for the solvent control, solvent was added to the total binding tube, but no test compound added.
(§7) Sigmoidal curve fitting was performed for the data obtained from all of the test drugs by Origin 6.1, and the IC50 value was calculated.

[9] = molecular target: T7, reuptake of [3H]NA by prefrontal cortex synaptosomes (Rattus norvegicus, UniProt Q9WTR4); assay: IC50 for inhibiting reuptake of [3H]NA by brain synaptosomes (Example 36); type: biochemical; details: mean, n = 3~4
T7 construct: from tissue; host or cells: rat prefrontal cortex synaptosomes
Procedure: as §3, §5, §6, §7

[10] = molecular target: T8, reuptake of 5-HT by brain synaptosomes (prefrontal cortex) (Rattus norvegicus, UniProt P31652); assay: Inhibition of [3H]5-HT reuptake by rat brain synaptosomes, single concentration (Example 35); type: biochemical; details: test substance 10 μmol/L; inhibitory rate of 0.1 mM venlafaxine taken as 100%
T8 construct: from tissue; host or cells: rat prefrontal cortex synaptosomes
Procedure: as §2, §3, §4

[11] = molecular target: T9, reuptake of [3H]5-HT by prefrontal cortex synaptosomes (Rattus norvegicus, UniProt P31652); assay: IC50 for inhibiting reuptake of [3H]5-HT by brain synaptosomes (Example 36); type: biochemical; details: mean, n = 3~4
T9 construct: from tissue; host or cells: rat prefrontal cortex synaptosomes
Procedure: as §3, with “The precipitation was suspended in 30 volume of KRH Buffer (125 mM NaCl, 4.8 mM KCl, 1.2 mM CaCl2, 1.2 mM MgSO4, 1.0 mM KH2PO4, 22 mM NaHCO3, 25 mM HEPES, 10 mM Glucose, 10 μM Pargyline, 0.2 mg/ml Ascorbic Acid) and then was preserved in an ice bath for use.” left out
as §6, §7

[12] = Pharmacokinetics and bioavailability, single i.v. and oral administration in SD rat; type: in vivo; details: for bioavailability: oral 50 mg/kg vs i.v. 10 mg/kg
Procedure: To study the pharmacokinetics parameters and the bioavailability of VIII-9, VIII-10 and SIPI5286 when single i.v. and oral administration in SD rat
Eighteen male rats were randomized into 6 groups and were administrated with the three compounds via i.v. and oral route, respectively. The dosage was 10 mg/kg (IV) and 50 mg/kg (PO). The test substance was dissolved in the solution of 5% DMSO/95% HP-β-CD aqueous solution (30%), and were administrated to the animal via i.v. and oral route. Blood plasma was collected at a serial of time points after i.v. and oral administration, and the blood drug concentrations were determined by LC/MS/MS. Then the pharmacokinetics parameters and the bioavailability were calculated based on the blood drug concentrations.

[13] = one week oral administration, 10.4 mg/kg
[14] = one week oral administration, 17.3 mg/kg
[15] = one week oral administration, 28.8 mg/kg
[16] = one week oral administration, 48 mg/kg
[17] = single oral administration, 10.4 mg/kg
[18] = single oral administration, 17.3 mg/kg
[19] = single oral administration, 28.8 mg/kg
[20] = single oral administration, 48 mg/kg

T2 sequence (P31652 whole entry): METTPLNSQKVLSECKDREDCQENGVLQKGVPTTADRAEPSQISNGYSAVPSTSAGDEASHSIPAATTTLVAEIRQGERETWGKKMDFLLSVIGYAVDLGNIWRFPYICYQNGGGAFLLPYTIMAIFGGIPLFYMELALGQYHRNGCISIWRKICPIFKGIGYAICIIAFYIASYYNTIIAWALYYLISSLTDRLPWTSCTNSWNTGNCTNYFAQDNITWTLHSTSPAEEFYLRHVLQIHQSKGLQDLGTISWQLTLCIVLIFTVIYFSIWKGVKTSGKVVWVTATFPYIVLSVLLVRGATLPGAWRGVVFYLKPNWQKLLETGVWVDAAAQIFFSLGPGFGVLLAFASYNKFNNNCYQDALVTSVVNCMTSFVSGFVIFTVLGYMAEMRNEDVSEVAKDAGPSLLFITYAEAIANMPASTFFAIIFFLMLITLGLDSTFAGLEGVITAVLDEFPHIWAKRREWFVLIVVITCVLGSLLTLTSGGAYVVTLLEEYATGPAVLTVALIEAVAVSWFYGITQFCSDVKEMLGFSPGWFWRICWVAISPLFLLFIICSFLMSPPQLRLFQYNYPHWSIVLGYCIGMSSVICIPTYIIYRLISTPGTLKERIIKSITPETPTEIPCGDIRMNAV
T3 sequence (Q9WTR4 1-597): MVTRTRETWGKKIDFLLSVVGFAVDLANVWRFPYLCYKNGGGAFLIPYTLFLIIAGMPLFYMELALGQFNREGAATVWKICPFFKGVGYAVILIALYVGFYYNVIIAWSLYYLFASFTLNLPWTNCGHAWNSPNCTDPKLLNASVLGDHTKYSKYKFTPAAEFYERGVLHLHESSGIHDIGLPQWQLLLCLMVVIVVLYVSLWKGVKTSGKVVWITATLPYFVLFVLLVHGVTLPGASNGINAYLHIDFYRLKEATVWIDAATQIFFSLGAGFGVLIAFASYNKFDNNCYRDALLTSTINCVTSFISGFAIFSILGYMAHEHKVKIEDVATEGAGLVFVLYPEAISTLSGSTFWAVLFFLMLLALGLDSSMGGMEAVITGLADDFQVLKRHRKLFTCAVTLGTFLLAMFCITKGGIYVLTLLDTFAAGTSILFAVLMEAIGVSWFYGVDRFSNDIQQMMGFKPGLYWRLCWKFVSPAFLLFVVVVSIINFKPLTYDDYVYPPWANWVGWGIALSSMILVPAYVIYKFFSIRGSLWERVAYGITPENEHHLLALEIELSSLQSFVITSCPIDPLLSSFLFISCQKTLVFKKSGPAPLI
T1 sequence (P23977 whole entry): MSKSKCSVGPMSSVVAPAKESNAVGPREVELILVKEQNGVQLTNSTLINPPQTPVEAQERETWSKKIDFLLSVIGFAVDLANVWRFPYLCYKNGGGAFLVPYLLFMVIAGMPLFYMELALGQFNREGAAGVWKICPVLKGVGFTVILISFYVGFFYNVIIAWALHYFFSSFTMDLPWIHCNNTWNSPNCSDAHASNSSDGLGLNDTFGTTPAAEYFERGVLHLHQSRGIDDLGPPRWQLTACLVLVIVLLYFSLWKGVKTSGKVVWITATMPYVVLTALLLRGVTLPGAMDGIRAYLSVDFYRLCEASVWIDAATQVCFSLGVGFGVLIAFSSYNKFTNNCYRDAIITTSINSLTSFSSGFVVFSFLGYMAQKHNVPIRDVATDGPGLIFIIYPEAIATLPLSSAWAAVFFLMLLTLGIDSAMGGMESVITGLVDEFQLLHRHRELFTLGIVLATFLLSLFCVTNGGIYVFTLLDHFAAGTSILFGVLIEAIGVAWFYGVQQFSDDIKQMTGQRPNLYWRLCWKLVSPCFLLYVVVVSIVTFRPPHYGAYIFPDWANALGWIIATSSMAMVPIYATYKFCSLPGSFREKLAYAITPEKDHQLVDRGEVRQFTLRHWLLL
T9 sequence (P31652 whole entry): as the sequence (P31652 whole entry) above
T8 sequence (P31652 whole entry): as above
T4 sequence (Q9WTR4 1-597): as the sequence (Q9WTR4 1-597) above
T7 sequence (Q9WTR4 1-597): as above
T5 sequence (P23977 whole entry): as the sequence (P23977 whole entry) above
T6 sequence (P23977 whole entry): as above

SMILES | IC50 [1] | IC50 [2] | IC50 [3] | inhibition on the reuptake of NA(%) [4] | mortality (%) ([5]; oral 507.8 mg/kg) | number of died animals ([5]; oral 507.8 mg/kg) | mortality (%) ([5]; oral 781.2 mg/kg) | number of died animals ([5]; oral 781.2 mg/kg) | mortality (%) ([5]; oral 1201.9 mg/kg) | number of died animals ([5]; oral 1201.9 mg/kg) | mortality (%) ([5]; oral 1849.1 mg/kg) | number of died animals ([5]; oral 1849.1 mg/kg) | mortality (%) ([5]; oral 2844.7 mg/kg) | number of died animals ([5]; oral 2844.7 mg/kg) | inhibition on the reuptake of DA(%) [6] | swimming test: immobility time [7, 13] | swimming test: immobility time [7, 14] | swimming test: immobility time [7, 15] | swimming test: immobility time [7, 16] | ED50 swimming test ([7]; single oral administration) | further results
CCCCC(C(O)c1ccc2c(Cl)c(OC)ccc2c1)N1CCN(Cc2ccccc2)CC1 (single isomer, unassigned) [IX-23] | 1000 nM | 1900 nM | 2100 nM |  |  |  |  |  |  |  |  |  |  |  |  |  |  |  |  |  | 
CCCCC(C(O)c1ccc2c(Cl)c(OC)ccc2c1)N1CCN(Cc2ccccc2)CC1 [IX-25, (1R,2S)-N^1-benzyl-N^4-[1-butyl-2-(5′-chloro-6′-methoxyl-2′-naphthyl)hydroxyethyl]piperazine] | 670 nM | 830 nM | 140 nM |  |  |  |  |  |  |  |  |  |  |  |  |  |  |  |  |  | 
CCCCC(C(O)c1ccc2c(Cl)c(OC)ccc2c1)N1CCN(Cc2ccccc2)CC1 (single isomer, unassigned) [IX-24] | 1100 nM | 3100 nM | 1400 nM |  |  |  |  |  |  |  |  |  |  |  |  |  |  |  |  |  | 
CCCC[C@H]([C@H](O)c1ccc2c(Cl)c(OC)ccc2c1)N1CCN(Cc2ccccc2)CC1 (racemic) [VIII-10, (1SR,2SR)-N^1-benzyl-N^4-[1-butyl-2-(5′-chloro-6′-methoxyl-2′-naphthyl)hydroxyethyl]piperazine] |  |  |  | 145% | 0.00% | 0 | 33.3% | 2 | 66.7% | 4 | 83.3% | 5 | 100% | 6 | 133% | 77.6 ± 24.69 s | 78.2 ± 25.63 s | 51.9 ± 51.23 s | 68.3 ± 34.01 s | 11.8 mg/kg | LD50 (95% confidential limit) ([5]; oral, male & female, Bliss method): 1048.5 (751.33˜1433.7) mg/kg; swimming test: immobility time [7, 17]: 81.8 ± 39.34 s; swimming test: immobility time [7, 18]: 43.4 ± 35.41 s; swimming test: immobility time [7, 19]: 40.8 ± 40.24 s; swimming test: immobility time [7, 20]: 64.4 ± 43.01 s; IC50 [8]: 165 nM; IC50 [9]: 4730 nM; Inhibition on the reuptake of 5-HT(%) [10]: 136%; IC50 [11]: 272 nM; AUC (0-t) ([12]; i.v. 10 mg/kg): 2932.05 ng·h/mL; half life (T½) ([12]; i.v. 10 mg/kg): 9.06 h; Cmax ([12]; i.v. 10 mg/kg, (5 min)): 2998.49 ng/mL; AUC (0-t) ([12]; oral 50 mg/kg): 5552.24 ng·h/mL; Cmax ([12]; oral 50 mg/kg): 727.20 ng/mL; Tmax ([12]; oral 50 mg/kg): 1.67 h; half life (T½) ([12]; oral 50 mg/kg): 16.41 h; bioavailability [12]: 63.78%
CCCCC(C(O)c1ccc2c(Cl)c(OC)ccc2c1)N1CCN(Cc2ccccc2)CC1 [IX-26, (1R,2R)-N^1-benzyl-N^4-[1-butyl-2-(5′-chloro-6′-methoxyl-2′-naphthyl)hydroxyethyl]piperazine] | 1100 nM | 1200 nM | 1200 nM |  |  |  |  |  |  |  |  |  |  |  |  |  |  |  |  |  | 
CCCC[C@H]([C@@H](O)c1ccc2c(Cl)c(OC)ccc2c1)N1CCN(Cc2ccccc2)CC1 (racemic) [VIII-9, (1SR,2RS)-N^1-benzyl-N^4-[1-butyl-2-(5′-chloro-6′-methoxyl-2′-naphthyl)hydroxyethyl]piperazine] |  |  |  | 155.2% | 0% | 0 | 0% | 0 | 0% | 0 | 0% | 0 | 0% | 0 | 117% | 93.4 ± 26.71 s | 82.1 ± 44.06 s | 87.2 ± 40.07 s | 91.5 ± 58.14 s | 34.3 mg/kg | swimming test: immobility time [7, 17]: 74.3 ± 46.63 s; swimming test: immobility time [7, 18]: 119.4 ± 28.02 s; swimming test: immobility time [7, 19]: 77.4 ± 53.81 s; swimming test: immobility time [7, 20]: 104.3 ± 75.81 s; IC50 [8]: 2.1 nM; IC50 [9]: 2.8 nM; Inhibition on the reuptake of 5-HT(%) [10]: 125%; IC50 [11]: 73.3 nM; AUC (0-t) ([12]; i.v. 10 mg/kg): 4060.59 ng·h/mL; half life (T½) ([12]; i.v. 10 mg/kg): 7.83 h; Cmax ([12]; i.v. 10 mg/kg, (5 min)): 2640.94 ng/mL; AUC (0-t) ([12]; oral 50 mg/kg): 3345.73 ng·h/mL; Cmax ([12]; oral 50 mg/kg): 352.27 ng/mL; Tmax ([12]; oral 50 mg/kg): 1.50 h; half life (T½) ([12]; oral 50 mg/kg): 5.89 h; bioavailability [12]: 16.32%
